Source: ChEMBL document CHEMBL3627691, “Structure activity relationships of benzyl C-region analogs of 2-(3-fluoro-4-methylsulfonamidophenyl)propanamides as potent TRPV1 antagonists” (Bioorg Med Chem, 2015)

Key:
[1] = biological target: T1, Transient receptor potential cation channel subfamily V member 1 (Homo sapiens, UniProt Q8NER1); assay: Antagonist activity at human TRPV1 heterologously expressed in CHO cells assessed as inhibition of capsaicin-induced activation by FLIPR assay; assay type: cell-based
[2] = biological target: T1, Transient receptor potential cation channel subfamily V member 1; assay: Antagonist activity at human TRPV1 heterologously expressed in CHO cells assessed as inhibition of NADA-induced activation by FLIPR assay; assay type: cell-based
[3] = biological target: T1, Transient receptor potential cation channel subfamily V member 1; assay: Antagonist activity at human TRPV1 heterologously expressed in CHO cells assessed as inhibition of low pH-induced activation; assay type: cell-based
[4] = biological target: T1, Transient receptor potential cation channel subfamily V member 1; assay: Antagonist activity at human TRPV1 heterologously expressed in CHO cells assessed as inhibition of low 45 degC heat -induced activation; assay type: cell-based
[5] = test system: Mus musculus; assay: Inhibition of capsaicin-induced hypothermia in mouse at 3 mg/kg, po administered 15 mins prior to capsaicin challenge measured 30 mins post capsaicin challenge; assay type: functional
[6] = test system: Mus musculus; assay: Analgesic activity in Bennett mouse model of neuropathic pain assessed as reduction of CCI-induced cold allodynia at 0.0001 to 100 mg/kg, po; assay type: functional, organism-based
[7] = test system: Mus musculus; assay: Induction of hyperthermia in mouse at 0.3 and 3 mg/kg, po; details: in vivo
[8] = test system: Mus musculus; assay: Inhibition of capsaicin-induced hypothermia in mouse at 0.3 mg/kg, po administered 15 mins prior to capsaicin challenge measured 30 mins post capsaicin challenge; assay type: functional
[9] = test system: Mus musculus; assay: Analgesic activity in Bennett mouse model of neuropathic pain assessed as reduction of CCI-induced cold allodynia at 10 mg/kg, po; assay type: functional
[10] = test system: Mus musculus; assay: Inhibition of capsaicin-induced hypothermia in mouse at 0.3 and 3 mg/kg, po administered 15 mins prior to capsaicin challenge measured 30 mins post capsaicin challenge; assay type: functional, organism-based

T1 sequence (Q8NER1 whole entry): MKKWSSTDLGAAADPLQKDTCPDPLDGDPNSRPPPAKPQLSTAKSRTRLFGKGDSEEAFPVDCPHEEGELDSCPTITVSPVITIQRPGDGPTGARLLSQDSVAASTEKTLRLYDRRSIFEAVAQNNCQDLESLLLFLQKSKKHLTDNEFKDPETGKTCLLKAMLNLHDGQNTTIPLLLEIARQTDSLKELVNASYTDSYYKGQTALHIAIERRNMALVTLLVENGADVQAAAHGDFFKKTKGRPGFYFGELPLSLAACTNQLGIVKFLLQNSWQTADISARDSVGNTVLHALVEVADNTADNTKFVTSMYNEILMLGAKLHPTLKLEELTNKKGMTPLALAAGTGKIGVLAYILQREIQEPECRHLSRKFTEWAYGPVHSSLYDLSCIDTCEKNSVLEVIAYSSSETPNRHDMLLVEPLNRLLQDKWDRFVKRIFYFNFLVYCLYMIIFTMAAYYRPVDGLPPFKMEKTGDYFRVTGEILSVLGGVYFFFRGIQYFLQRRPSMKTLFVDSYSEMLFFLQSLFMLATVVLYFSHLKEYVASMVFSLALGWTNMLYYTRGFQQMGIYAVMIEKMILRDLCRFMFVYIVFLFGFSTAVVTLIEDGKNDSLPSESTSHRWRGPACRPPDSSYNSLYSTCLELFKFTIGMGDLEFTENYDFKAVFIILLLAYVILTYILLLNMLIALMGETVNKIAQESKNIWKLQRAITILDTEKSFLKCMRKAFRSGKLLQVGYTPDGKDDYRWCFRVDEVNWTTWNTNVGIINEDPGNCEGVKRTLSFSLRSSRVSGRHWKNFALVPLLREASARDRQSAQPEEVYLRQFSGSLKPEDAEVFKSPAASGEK

CC(C(=O)NCc1ccc(C(F)(F)F)nc1N1CCC(C(F)(F)F)CC1)c1ccc(NS(C)(=O)=O)c(F)c1 (stereo not given)
Ki ([1]; read-out: Ki): 0.4 nM

CC(C(=O)NCc1ccc(C(F)(F)F)cc1C1CCCCC1)c1ccc(NS(C)(=O)=O)c(F)c1 (stereo not given)
Ki ([1]; read-out: Ki): 0.6 nM

CC(C(=O)NCc1ccc(C(F)(F)F)cc1N1CCN(c2cccc(C(F)(F)F)c2)CC1)c1ccc(NS(C)(=O)=O)c(F)c1 (stereo not given)
Ki ([1]; read-out: Ki): 3.9 nM

CC(C(=O)NCc1ccc(C(F)(F)F)cc1-c1cccc(Cl)c1)c1ccc(NS(C)(=O)=O)c(F)c1 (stereo not given)
Ki ([1]; read-out: Ki): 1 nM

CC(C)CCSc1cc(C(F)(F)F)ccc1CNC(=O)C(C)c1ccc(NS(C)(=O)=O)c(F)c1 (stereo not given)
Ki ([1]; read-out: Ki): 1.4 nM

C[C@@H](C(=O)NCc1ccc(C(F)(F)F)cc1SC1CCCCC1)c1ccc(NS(C)(=O)=O)c(F)c1
Ki ([1]; read-out: Ki): 13.9 nM

CCCCCCSc1cc(C(F)(F)F)ccc1CNC(=O)C(C)c1ccc(NS(C)(=O)=O)c(F)c1 (stereo not given)
Ki ([1]; read-out: Ki): 1.8 nM

CCCCSc1cc(C(F)(F)F)ccc1CNC(=O)C(C)c1ccc(NS(C)(=O)=O)c(F)c1 (stereo not given)
Ki ([1]; read-out: Ki): 1.9 nM

CC1CCN(c2cc(C(F)(F)F)ccc2CNC(=O)C(C)c2ccc(NS(C)(=O)=O)c(F)c2)CC1 (stereo not given)
Ki ([1]; read-out: Ki): 0.9 nM

CC(C(=O)NCc1ccc(C(F)(F)F)nc1-c1ccc(F)c(Cl)c1)c1ccc(NS(C)(=O)=O)c(F)c1 (stereo not given)
Ki ([1]; read-out: Ki): 0.6 nM

CCCCN(C)c1cc(C(F)(F)F)ccc1CNC(=O)C(C)c1ccc(NS(C)(=O)=O)c(F)c1 (stereo not given)
Ki ([1]; read-out: Ki): 1.2 nM

CC(C)CCOc1cc(C(F)(F)F)ccc1CNC(=O)C(C)c1ccc(NS(C)(=O)=O)c(F)c1 (stereo not given)
Ki ([1]; read-out: Ki): 0.5 nM

CC(C(=O)NCc1ccc(C(F)(F)F)cc1-c1ccc(F)c(Cl)c1)c1ccc(NS(C)(=O)=O)c(F)c1 (stereo not given)
Ki ([1]; read-out: Ki): 0.6 nM

C[C@H](C(=O)NCc1ccc(C(F)(F)F)cc1SC1CCCCC1)c1ccc(NS(C)(=O)=O)c(F)c1
Ki [2]: 0.03 nM
Ki ([1]; read-out: Ki): 0.3 nM
IC50 [3]: 20.4 nM
IC50 [4]: 7.3 nM
inhibition in vivo at 3 mg/kg [5]: 57%
Activity [6]: Dose-dependent effect
Activity [7]: Non-toxic

CC(C(=O)NCc1ccc(C(F)(F)F)cc1[N+](=O)[O-])c1ccc(NS(C)(=O)=O)c(F)c1 (stereo not given)
Ki ([1]; cho): Not Active

CC(C(=O)NCc1ccc(C(F)(F)F)cc1SC1CCCC1)c1ccc(NS(C)(=O)=O)c(F)c1 (stereo not given)
Ki [2]: 0.03 nM
Ki ([1]; read-out: Ki): 0.3 nM
IC50 [3]: 32 nM
IC50 [4]: 37.2 nM
inhibition in vivo at 0.3 mg/kg [8]: 38%
inhibition in vivo at 3 mg/kg [5]: 80%
MPE [9]: 48%
inhibition [10]: Dose-dependent effect
Activity [6]: Dose-dependent effect
Activity [7]: Non-toxic

CC(C(=O)NCc1ccc(C(F)(F)F)cc1SCc1ccccc1Cl)c1ccc(NS(C)(=O)=O)c(F)c1 (stereo not given)
Ki ([1]; read-out: Ki): 0.9 nM

CC(C(=O)NCc1ccc(C(F)(F)F)cc1SC1CCCCC1)c1ccc(NS(C)(=O)=O)c(F)c1 (stereo not given)
Ki ([1]; read-out: Ki): 0.5 nM

COc1ccc(CSc2cc(C(F)(F)F)ccc2CNC(=O)C(C)c2ccc(NS(C)(=O)=O)c(F)c2)cc1 (stereo not given)
Ki ([1]; read-out: Ki): 2.3 nM

CC(C(=O)NCc1ccc(C(F)(F)F)cc1SCc1ccco1)c1ccc(NS(C)(=O)=O)c(F)c1 (stereo not given)
Ki ([1]; read-out: Ki): 3.2 nM

CC(C(=O)NCc1ccc(C(F)(F)F)cc1SCCCO)c1ccc(NS(C)(=O)=O)c(F)c1 (stereo not given)
Ki ([1]; cho): Not Active

CC(C(=O)NCc1ccc(C(F)(F)F)cc1N1CCC(Cc2ccc(F)cc2)CC1)c1ccc(NS(C)(=O)=O)c(F)c1 (stereo not given)
Ki ([1]; read-out: Ki): 0.4 nM

CCCCCCc1cc(C(F)(F)F)ccc1CNC(=O)C(C)c1ccc(NS(C)(=O)=O)c(F)c1 (stereo not given)
Ki ([1]; read-out: Ki): 0.4 nM

CC(C(=O)NCc1ccc(C(F)(F)F)cc1N1CCC(Cc2cccc(F)c2)CC1)c1ccc(NS(C)(=O)=O)c(F)c1 (stereo not given)
Ki ([1]; read-out: Ki): 0.4 nM

CC(C(=O)NCc1ccc(C(F)(F)F)cc1SCc1ccccc1)c1ccc(NS(C)(=O)=O)c(F)c1 (stereo not given)
Ki ([1]; read-out: Ki): 0.5 nM

CC(C(=O)NCc1ccc(C(F)(F)F)cc1OCc1ccc(F)cc1)c1ccc(NS(C)(=O)=O)c(F)c1 (stereo not given)
Ki ([1]; read-out: Ki): 0.5 nM

CCCCCSc1cc(C(F)(F)F)ccc1CNC(=O)C(C)c1ccc(NS(C)(=O)=O)c(F)c1 (stereo not given)
Ki ([1]; read-out: Ki): 2.3 nM

CCCOc1cc(C(F)(F)F)ccc1CNC(=O)C(C)c1ccc(NS(C)(=O)=O)c(F)c1 (stereo not given)
Ki ([1]; read-out: Ki): 2 nM

CC(C(=O)NCc1ccc(C(F)(F)F)cc1SCc1ccc(Cl)cc1)c1ccc(NS(C)(=O)=O)c(F)c1 (stereo not given)
Ki ([1]; read-out: Ki): 1.1 nM

CC(C)COc1cc(C(F)(F)F)ccc1CNC(=O)C(C)c1ccc(NS(C)(=O)=O)c(F)c1 (stereo not given)
Ki ([1]; read-out: Ki): 0.8 nM
